Assay results as given in US20210386706A1, “METHODS FOR THE TREATMENT OF SCLERODERMA” (Arena Pharmaceuticals, Inc., priority 2018, published 2021).
pEC50: −log10 of the molar value.

How the values were obtained:
[1] = biological target: S1P2 (Homo sapiens, UniProt O95136); assay: β-arrestin assay S1P2; type: cell-based
[2] = biological target: T1, S1P1 (Homo sapiens, UniProt P21453); assay: β-arrestin assay S1P1; type: cell-based
[3] = system: bleomycin-induced skin fibrosis; assay: bleomycin-induced rodent model of skin fibrosis; type: in vivo, male C57BL/6 mice; conditions: mice, PO QD
Protocol: Compound 1 was evaluated in a bleomycin-induced rodent model of skin fibrosis. Skin fibrosis was induced in male C57BL/6 mice (6-7 weeks old; 20-25 g) with bleomycin injections at a concentration of 0.5 mg/ml via subcutaneous (SC) route. The mice received 100 μl of bleomycin at 0.5 mg/ml dissolved in PBS every other day for 21 days. The following treatments were randomly assigned: 1.) sham+vehicle (10% HBPCD/saline) per oral (PO) once daily (QD); 2.) bleomycin+vehicle (10% HBPCD/saline) PO QD; 3.) bleomycin+1 mg/kg Compound 1 PO QD; 4.) bleomycin+3 mg/kg Compound 1 PO QD; 5.) bleomycin+1 mg/kg FTY720 PO 3×/week; 6.) bleomycin+90 mg/kg FTY720 intraperitoneal (IP) QD (FIG. 1). Skin tissue was harvested post-mortem, with half of the biopsy specimen fixed in 4% wt/vol. paraformaldehyde for histology and the other half snap frozen for collagen analysis (hydroxyproline assay). Histological sections (4 μm) were cut from paraffin-embedded PFA-fixed lesional skin tissue. Sections were stained with haematoxylin and eosin (H&E) and Masson's Trichrome. Images were captured at ×100 microscopic magnification for histological dermal thickness determination. Collagen deposition (FIG. 2A), dermal thickness (FIG. 2B), tissue sections (FIG. 2C), dermal fibrosis (FIG. 3A), inflammation (FIG. 3B), and average epidermal thickness (FIG. 3C) were evaluated.

[4] = system: lymphocytes; assay: single ascending dose and multiple ascending dose studies in healthy subjects; type: in vivo
[5] = biological target: T2, S1P4 (Homo sapiens, UniProt O95977); assay: β-arrestin assay S1P4; type: cell-based
T2 sequence (O95977 1-384): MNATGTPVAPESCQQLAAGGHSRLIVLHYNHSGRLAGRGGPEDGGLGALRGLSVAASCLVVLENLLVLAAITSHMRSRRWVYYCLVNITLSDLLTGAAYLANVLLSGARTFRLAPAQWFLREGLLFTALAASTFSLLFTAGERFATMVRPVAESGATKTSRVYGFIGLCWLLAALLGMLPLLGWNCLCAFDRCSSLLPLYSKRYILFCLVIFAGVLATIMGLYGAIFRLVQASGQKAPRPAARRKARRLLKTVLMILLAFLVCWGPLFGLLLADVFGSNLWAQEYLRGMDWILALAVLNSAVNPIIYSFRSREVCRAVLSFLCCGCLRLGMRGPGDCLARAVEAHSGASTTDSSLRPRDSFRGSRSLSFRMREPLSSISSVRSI

[6] = biological target: S1P5 (Homo sapiens, UniProt Q9H228); assay: β-arrestin assay S1P5; type: cell-based
[7] = biological target: S1P3 (Homo sapiens, UniProt Q99500); assay: β-arrestin assay S1P3; type: cell-based
[8] = biological target: T1, S1P1; assay: cAMP assay; type: cell-based; conditions: read-out: ECK, cAMP

T1 sequence (P21453 whole entry): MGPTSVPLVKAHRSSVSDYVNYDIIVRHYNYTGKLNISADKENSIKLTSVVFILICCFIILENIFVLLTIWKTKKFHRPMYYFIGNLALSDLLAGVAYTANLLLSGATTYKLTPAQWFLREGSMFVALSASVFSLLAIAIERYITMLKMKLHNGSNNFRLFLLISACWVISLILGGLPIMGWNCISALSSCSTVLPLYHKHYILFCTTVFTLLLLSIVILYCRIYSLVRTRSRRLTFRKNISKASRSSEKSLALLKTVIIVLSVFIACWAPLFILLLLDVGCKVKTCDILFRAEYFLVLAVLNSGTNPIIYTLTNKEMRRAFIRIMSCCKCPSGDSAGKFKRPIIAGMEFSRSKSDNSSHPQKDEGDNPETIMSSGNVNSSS
S1P5, sequence (Q9H228 whole entry): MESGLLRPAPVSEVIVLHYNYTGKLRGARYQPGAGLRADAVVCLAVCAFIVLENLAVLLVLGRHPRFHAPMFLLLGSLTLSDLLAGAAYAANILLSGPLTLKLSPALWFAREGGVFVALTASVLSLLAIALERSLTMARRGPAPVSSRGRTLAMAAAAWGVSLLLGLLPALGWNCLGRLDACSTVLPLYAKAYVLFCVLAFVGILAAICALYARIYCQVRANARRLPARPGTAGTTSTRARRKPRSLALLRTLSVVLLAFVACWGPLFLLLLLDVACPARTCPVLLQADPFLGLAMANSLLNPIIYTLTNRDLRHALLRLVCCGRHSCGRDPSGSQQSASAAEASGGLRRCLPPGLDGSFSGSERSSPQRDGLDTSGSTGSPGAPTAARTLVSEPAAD
S1P2, sequence (O95136 whole entry): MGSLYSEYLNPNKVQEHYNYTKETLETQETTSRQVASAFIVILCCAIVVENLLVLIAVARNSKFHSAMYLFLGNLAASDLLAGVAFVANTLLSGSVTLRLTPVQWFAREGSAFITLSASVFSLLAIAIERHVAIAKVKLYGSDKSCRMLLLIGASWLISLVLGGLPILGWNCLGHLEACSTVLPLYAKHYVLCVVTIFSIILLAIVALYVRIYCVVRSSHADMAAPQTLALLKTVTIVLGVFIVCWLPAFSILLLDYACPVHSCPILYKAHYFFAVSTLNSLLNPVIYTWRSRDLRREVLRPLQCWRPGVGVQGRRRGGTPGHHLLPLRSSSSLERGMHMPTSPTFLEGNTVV
S1P3, sequence (Q99500 whole entry): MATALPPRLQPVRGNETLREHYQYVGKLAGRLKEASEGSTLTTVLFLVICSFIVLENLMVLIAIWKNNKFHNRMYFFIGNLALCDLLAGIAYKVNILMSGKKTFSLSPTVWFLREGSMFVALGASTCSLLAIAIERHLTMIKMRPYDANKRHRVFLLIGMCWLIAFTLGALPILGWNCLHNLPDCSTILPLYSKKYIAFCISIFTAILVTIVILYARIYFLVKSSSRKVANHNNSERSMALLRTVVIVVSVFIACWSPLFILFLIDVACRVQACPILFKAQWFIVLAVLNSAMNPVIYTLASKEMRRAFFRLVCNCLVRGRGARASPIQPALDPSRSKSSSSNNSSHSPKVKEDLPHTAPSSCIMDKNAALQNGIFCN

## O=C(O)C[C@H]1CCc2c1[nH]c1ccc(OCc3ccc(C4CCCC4)c(C(F)(F)F)c3)cc21 [Compound 1, (R)-2-(7-(4-cyclopentyl-3-(trifluoromethyl)benzyloxy)-1,2,3,4-tetrahydrocyclopenta[b]indol-3-yl)acetic acid]
[1]
  pEC50: < 5.00
[2]
  pEC50: 8.21
[3]; histology, FIG. 2B
  dermal thickening: significantly reduced
[3]; hydroxyproline assay, FIG. 2A
  collagen deposition: significantly reduced
[4]
  lymphocyte lowering: demonstrated the lymphocyte lowering capabilities
[5]
  pEC50: 6.83
[6]
  pEC50: 7.61
[7]
  pEC50: < 5.00
[8]
  pEC50: 10.03
